Legend:
[1] = target: T1, hemoglobin vesicle (methemoglobin formation) (Homo sapiens, UniProt P68871+P69905); assay: Autoxidation of hemoglobin vesicle in the atmospheric air (37° C.), rate of methemoglobin from absorbance ratio 405/430 nm; assay type: biochemical; details: for effect to inhibit methemoglobin formation (FIG. 1): encapsulated in hemoglobin vesicle, same manner as Example 1; for Time required for 50% metHb formation: control 34.0; for Initial rate of metHb formation: control 1.3
T1 construct: obtained by purification of human red cells derived from the donated blood; from tissue; host or cells: human red cells from donated blood
T1 sequence (P69905 2-142 limits assumed): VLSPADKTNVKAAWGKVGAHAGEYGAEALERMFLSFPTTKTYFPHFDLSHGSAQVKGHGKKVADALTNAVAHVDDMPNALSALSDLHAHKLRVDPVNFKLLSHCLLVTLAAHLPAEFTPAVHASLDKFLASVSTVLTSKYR
T1 sequence (P68871 2-147 limits assumed): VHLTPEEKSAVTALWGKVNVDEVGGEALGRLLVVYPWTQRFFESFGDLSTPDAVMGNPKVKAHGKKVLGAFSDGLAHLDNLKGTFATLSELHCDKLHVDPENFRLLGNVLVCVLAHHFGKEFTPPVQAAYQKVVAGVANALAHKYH
Protocol: Otherwise, such components were not added to the above hemoglobin solution. Thereafter, using Remolino™ (manufactured by Millipore Japan), each of the obtained mixtures was filtrated through an FM microfilter with a pore size of 0.22 μm (manufactured by Fuji Photo Film Co., Ltd.), so as to obtain a processed hemoglobin solution. Mixed lipid powders (a mixture consisting of phosphatidylcholine, cholesterol, and DPEA; manufactured by Nippon Fine Chemical) were added, little by little, to the hemoglobin solution, resulting in the concentration of lipid of 4.5 wt %. The mixture was then stirred at 4° C. for 12 hours, so as to obtain a multilayer vesicle, in which hemoglobin had been encapsulated. The particle diameter and the number of coating layers were regulated by the extrusion method using Remolino. The FM microfilters were used in the order of pore sizes of 3, 0.8, 0.65, 0.45, 0.3, and 0.22 μm. The obtained hemoglobin vesicle dispersion was diluted with a saline solution. The diluted solution was subjected to ultracentrifugation (50,000 g, 40 minutes), and the supernatant hemoglobin solution was then eliminated by aspiration. Thereafter, a polyoxyethylene-binding lipid [N-(monomethoxy polyethylene glycol-carbamyl)distearoyl phosphatidyl ethanolamine; the molecular weight of the polyethylene glycol chain: 5,300] dispersed in a saline solution was added thereto, at an amount corresponding to 0.3 mol % of the lipid on the outer surface of the vesicle. The mixture was stirred at 25° C. for 2 hours, so as to modify the surface of the hemoglobin vesicle with polyethylene glycol. The concentration of hemoglobin was set at 10 g/dL, and the mixed solution was then filtrated through a 0.45-μm filter (Dismic-25; […]), so as to obtain a polyethylene glycol-modified hemoglobin vesicle.
Each sample was collected over time. Thereafter, the rate of methemoglobin was calculated from the ratio of the absorbance of the hemoglobin vesicle solution at 405 nm to that of at 430 nm.
A hemoglobin vesicle dispersion containing each of a tyrosine derivative, various types of antioxidants, and various types of phenol derivatives, at certain concentrations, was produced. Thereafter, the rate of methemoglobin formation was measured in the same manner as in Example 1.
Thereafter, the rate of 50% methemoglobin formation was measured in the same manner as in Example 1.
Thereafter, the time required for 50% methemoglobin formation was measured in the same manner as in Example 1.

[2] = target: T1, hemoglobin vesicle (methemoglobin formation); assay: Autoxidation of hemoglobin vesicle in the atmospheric air (4° C.), chilled storage; assay type: biochemical; details: [L-tyrosine]=1 mM
Protocol: As a result, a slight amount of dityrosine was confirmed. Thereafter, this experiment was performed on a mixture obtained by adding hydrogen peroxide to a methemoglobin solution containing L-tyrosine. As a result, a large amount of dityrosine was confirmed. This is because of the peroxidase activity of methemoglobin. Thereafter, the change in methemoglobin concentration was observed during chilled storage (4° C.).
Each sample was collected over time. Thereafter, the rate of methemoglobin was calculated from the absorbance ratio. […] 1 month later, the rate of methemoglobin were 4.4% and 9.3%, respectively. 3 months later, they were 10.2% and 24.3%, respectively.

hemoglobin [3] = target: T2, hemoglobin (Homo sapiens, UniProt P68871+P69905); assay: Oxygen dissociation curve of hemoglobin mixed with L-tyrosine; assay type: biochemical
T2 sequence (P69905 2-142 limits assumed): as the sequence (P69905 2-142 limits assumed) above
T2 sequence (P68871 2-147 limits assumed): as the sequence (P68871 2-147 limits assumed) above

[4] = Maximum dissolvable concentration of L-tyrosine; assay type: physicochemical
[5] = target: hemoglobin solution in an oxy state (methemoglobin formation) (Homo sapiens, UniProt P68871+P69905); assay: Repeated addition of hydrogen peroxide to oxyhemoglobin solution, cyanomethemoglobin method; assay type: biochemical; details: 60 minutes; 310 μM hydrogen peroxide every 10 minutes, 37° C., air; 5 g/dL oxyhemoglobin; 0.5 wt % methemoglobin and/or 1 mM L-tyrosine
Chain of hemoglobin solution in an oxy state (methemoglobin formation) (P69905 2-142 limits assumed): as the sequence (P69905 2-142 limits assumed) above
Chain of hemoglobin solution in an oxy state (methemoglobin formation) (P68871 2-147 limits assumed): as the sequence (P68871 2-147 limits assumed) above
Protocol: Thereafter, 310 μM hydrogen peroxide (the same concentration as that of heme in methemoglobin) was added to the above solution, every 10 minutes, for 60 minutes in the atmospheric air at 37° C., while stirring. 300 μl of a sample was collected immediately before addition of each hydrogen peroxide, and 20 μl of catalase (5,000 units) was promptly added to each sample, so as to eliminate the hydrogen peroxide. Thereafter, the rate of methemoglobin was calculated by the cyanomethemoglobin method.

hemoglobin [6] = target: T2, hemoglobin; assay: Isothermal titration microcalorimetry of L-tyrosine with hemoglobin; assay type: binding

| Molecule | Time required for 50% metHb formation ([1]; Table 1, concentration 1 mM) | Time required for 50% metHb formation ([1]; Table 1, concentration 3 mM) | Initial rate of metHb formation ([1]; concentration 1 mM) | Initial rate of metHb formation ([1]; concentration 3 mM) | Time required for 50% metHb formation ([1]; Table 1, concentration 0.1 mM) | Initial rate of metHb formation ([1]; concentration 0.1 mM) | other results |
| --- | --- | --- | --- | --- | --- | --- | --- |
| N[C@H](Cc1ccc(O)cc1)C(=O)O [D-tyrosine] |  |  |  |  |  |  | effect to inhibit methemoglobin formation (FIG. 1) [1]: does not have such an effect of inhibiting methemoglobin formation |
| O=C(O[C@@H]1Cc2c(O)cc(O)cc2O[C@@H]1c1cc(O)c(O)c(O)c1)c1cc(O)c(O)c(O)c1 [Epigallocatechin gallate] | 12.4 h | 13.0 h | 3.4 % hr | 3.2 % hr |  |  | Time required for 50% metHb formation ([1]; Table 1, concentration 2 mM): 13.6 h; Initial rate of metHb formation ([1]; concentration 2 mM): 3.2 % hr |
| O=C(O)Cc1ccc(O)cc1 [p-hydroxyphenyl acetic acid] | 30.2 h | 28.3 h | 1.7 % hr | 1.8 % hr | 30.6 h | 1.5 % hr |  |
| L-Tyr-L-Tyr |  |  |  |  |  |  | Time required for 50% metHb formation ([1]; Table 2, concentration 0.1 mM): 32.0 h; Time required for 50% metHb formation ([1]; Table 2, concentration 0.25 mM): 32.0 h |
| O=c1cc(-c2ccc(O)cc2)oc2cc(O)cc(O)c12 [Apigenin] | 35.6 h |  | 1.4 % hr |  | 34.8 h | 1.6 % hr |  |
| O=c1c(O)c(-c2ccc(O)cc2)oc2cc(O)cc(O)c12 [Kaempferol] | 25.0 h |  | 3.1 % hr |  |  |  |  |
| O=C(O)CCc1ccc(O)cc1 [3-(p-hydroxyphenyl)pronionic acid, 3-(p-hydroxy-phenyl)pronionic acid] | 32.2 h | 34.2 h | 1.0 % hr | 1.2 % hr |  |  | Time required for 50% metHb formation ([1]; Table 1, concentration not given): 34.7 h; Initial rate of metHb formation ([1]; concentration not given): 0.9 % hr |
| Catalase |  |  |  |  |  |  | Time required for 50% metHb formation ([1]; Table 2, concentration 50000 unit/mL): 45.0 h |
| L-Tyr-L-Glu |  |  |  |  |  |  | Time required for 50% metHb formation ([1]; Table 2, concentration 0.1 mM): 33.0 h; Time required for 50% metHb formation ([1]; Table 2, concentration 0.25 mM): 33.0 h |
| 3,4-dihydroxyphenol-L-alanine | 14.4 h | 8.2 h | 3.4 % hr | 5.3 % hr | 30.8 h | 1.4 % hr |  |
| N[C@@H](Cc1ccc(O)cc1)C(=O)O [L-tyrosine] | 52.0 h |  | 0.9 % hr |  |  |  | rate of methemoglobin ([2]; 4° C., 1 month later, no L-tyrosine: 9.3%): 4.4%; rate of methemoglobin ([2]; 4° C., 3 months later, no L-tyrosine: 24.3%): 10.2%; rate of methemoglobin ([2]; when prepared, no L-tyrosine: 3.0%): 3.0%; change in the degree of oxygen affinity (hemoglobin [3]): no change in the degree of oxygen affinity was observed; influence upon the allosteric effect (hemoglobin [3]): no particular influence upon the allosteric effect was found; maximum concentration that can be dissolved [4]: approximately 20 mM; rate of methemoglobin [5]: approximately 80%; Time required for 50% metHb formation ([1]; Table 1, concentration 0.25 mM): 42.0 h; Time required for 50% metHb formation ([1]; Table 1, concentration 0.5 mM): 48.0 h; Time required for 50% metHb formation ([1]; Table 2, concentration 0.25 mM): 42.0 h; Initial rate of metHb formation ([1]; concentration 0.25 mM): 1.1 % hr; Initial rate of metHb formation ([1]; concentration 0.5 mM): 1.0 % hr; effect to inhibit methemoglobin formation (FIG. 1) [1]: inhibits methemoglobin formation; heat of binding with hemoglobin (hemoglobin [6]): almost no heat of binding was observed |
| Oc1ccccc1 [Phenol] | 33.2 h |  | 1.3 % hr |  | 35.6 h | 1.1 % hr |  |
